Experimental data as given in ChEMBL document CHEMBL1201862, “PubChem BioAssay data set” (2004).
Activity calls are given as the source filed them.

Key:
[1] = biological target: Acyl-homoserine lactone acylase PvdQ (Pseudomonas aeruginosa (strain LESB58), UniProt Q9I194); test: PvdQ acylase enzyme activity blockers – biochemical, fluorescence, plate reader and imaging, cherry-picks, dose response (AID 493231)
[2] = biological target: Metabotropic glutamate receptor 4 (Homo sapiens, UniProt Q14833); test: Modulation of the Metabotropic Glutamate Receptor mGluR4: Potency at human mGluR4. Modulation of intracellular Ca2+ using Fluo-4, AM, in CHO expressing recombinant receptor [Related pubchem assays (depositor defined):AID2437, AID2807]; assay type: functional, cell-based
[3] = biological target: Metabotropic glutamate receptor 4 (Rattus norvegicus, UniProt P31423); test: Modulation of the Metabotropic Glutamate Receptor mGluR4: Rat PAM Potency. [Related pubchem assays (depositor defined):AID2437, AID2807]; assay type: functional
[4] = biological target: T1, Runt-related transcription factor 1/Core-binding factor subunit beta (Homo sapiens, UniProt Q01196+Q13951); test: disruptors of Runt domain/CBFb-SMMHC interaction – biochemical, FRET, Cerulean-Runt, Venus-CBFb-SMMHC, uHTS, […] (AID 1434); assay type: protein assay
T1 sequence (Q01196 whole entry, the tested form may be a part): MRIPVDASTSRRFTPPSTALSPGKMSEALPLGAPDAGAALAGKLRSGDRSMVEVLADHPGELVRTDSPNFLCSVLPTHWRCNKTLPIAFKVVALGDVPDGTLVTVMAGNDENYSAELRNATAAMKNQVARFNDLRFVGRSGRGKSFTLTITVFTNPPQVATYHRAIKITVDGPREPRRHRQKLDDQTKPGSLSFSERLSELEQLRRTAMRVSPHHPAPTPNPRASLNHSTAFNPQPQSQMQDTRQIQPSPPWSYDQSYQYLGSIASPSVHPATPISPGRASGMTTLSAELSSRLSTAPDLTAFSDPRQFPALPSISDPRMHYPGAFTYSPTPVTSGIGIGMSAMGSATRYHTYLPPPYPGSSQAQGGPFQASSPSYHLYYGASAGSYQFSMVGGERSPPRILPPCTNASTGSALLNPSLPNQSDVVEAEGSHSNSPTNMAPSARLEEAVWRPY
T1 sequence (Q13951 whole entry, the tested form may be a part): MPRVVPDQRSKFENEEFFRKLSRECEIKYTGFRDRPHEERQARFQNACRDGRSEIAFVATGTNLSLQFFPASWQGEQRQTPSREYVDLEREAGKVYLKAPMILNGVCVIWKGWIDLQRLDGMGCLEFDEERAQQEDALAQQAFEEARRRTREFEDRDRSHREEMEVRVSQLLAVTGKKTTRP

[5] = biological target: T2, Voltage-gated N-type calcium channel alpha-1B subunit/Amyloid beta A4 precursor protein-binding family A member 1 (Homo sapiens, UniProt Q00975+Q02410); assay type: protein assay
T2 sequence (Q00975 whole entry, the tested form may be a part): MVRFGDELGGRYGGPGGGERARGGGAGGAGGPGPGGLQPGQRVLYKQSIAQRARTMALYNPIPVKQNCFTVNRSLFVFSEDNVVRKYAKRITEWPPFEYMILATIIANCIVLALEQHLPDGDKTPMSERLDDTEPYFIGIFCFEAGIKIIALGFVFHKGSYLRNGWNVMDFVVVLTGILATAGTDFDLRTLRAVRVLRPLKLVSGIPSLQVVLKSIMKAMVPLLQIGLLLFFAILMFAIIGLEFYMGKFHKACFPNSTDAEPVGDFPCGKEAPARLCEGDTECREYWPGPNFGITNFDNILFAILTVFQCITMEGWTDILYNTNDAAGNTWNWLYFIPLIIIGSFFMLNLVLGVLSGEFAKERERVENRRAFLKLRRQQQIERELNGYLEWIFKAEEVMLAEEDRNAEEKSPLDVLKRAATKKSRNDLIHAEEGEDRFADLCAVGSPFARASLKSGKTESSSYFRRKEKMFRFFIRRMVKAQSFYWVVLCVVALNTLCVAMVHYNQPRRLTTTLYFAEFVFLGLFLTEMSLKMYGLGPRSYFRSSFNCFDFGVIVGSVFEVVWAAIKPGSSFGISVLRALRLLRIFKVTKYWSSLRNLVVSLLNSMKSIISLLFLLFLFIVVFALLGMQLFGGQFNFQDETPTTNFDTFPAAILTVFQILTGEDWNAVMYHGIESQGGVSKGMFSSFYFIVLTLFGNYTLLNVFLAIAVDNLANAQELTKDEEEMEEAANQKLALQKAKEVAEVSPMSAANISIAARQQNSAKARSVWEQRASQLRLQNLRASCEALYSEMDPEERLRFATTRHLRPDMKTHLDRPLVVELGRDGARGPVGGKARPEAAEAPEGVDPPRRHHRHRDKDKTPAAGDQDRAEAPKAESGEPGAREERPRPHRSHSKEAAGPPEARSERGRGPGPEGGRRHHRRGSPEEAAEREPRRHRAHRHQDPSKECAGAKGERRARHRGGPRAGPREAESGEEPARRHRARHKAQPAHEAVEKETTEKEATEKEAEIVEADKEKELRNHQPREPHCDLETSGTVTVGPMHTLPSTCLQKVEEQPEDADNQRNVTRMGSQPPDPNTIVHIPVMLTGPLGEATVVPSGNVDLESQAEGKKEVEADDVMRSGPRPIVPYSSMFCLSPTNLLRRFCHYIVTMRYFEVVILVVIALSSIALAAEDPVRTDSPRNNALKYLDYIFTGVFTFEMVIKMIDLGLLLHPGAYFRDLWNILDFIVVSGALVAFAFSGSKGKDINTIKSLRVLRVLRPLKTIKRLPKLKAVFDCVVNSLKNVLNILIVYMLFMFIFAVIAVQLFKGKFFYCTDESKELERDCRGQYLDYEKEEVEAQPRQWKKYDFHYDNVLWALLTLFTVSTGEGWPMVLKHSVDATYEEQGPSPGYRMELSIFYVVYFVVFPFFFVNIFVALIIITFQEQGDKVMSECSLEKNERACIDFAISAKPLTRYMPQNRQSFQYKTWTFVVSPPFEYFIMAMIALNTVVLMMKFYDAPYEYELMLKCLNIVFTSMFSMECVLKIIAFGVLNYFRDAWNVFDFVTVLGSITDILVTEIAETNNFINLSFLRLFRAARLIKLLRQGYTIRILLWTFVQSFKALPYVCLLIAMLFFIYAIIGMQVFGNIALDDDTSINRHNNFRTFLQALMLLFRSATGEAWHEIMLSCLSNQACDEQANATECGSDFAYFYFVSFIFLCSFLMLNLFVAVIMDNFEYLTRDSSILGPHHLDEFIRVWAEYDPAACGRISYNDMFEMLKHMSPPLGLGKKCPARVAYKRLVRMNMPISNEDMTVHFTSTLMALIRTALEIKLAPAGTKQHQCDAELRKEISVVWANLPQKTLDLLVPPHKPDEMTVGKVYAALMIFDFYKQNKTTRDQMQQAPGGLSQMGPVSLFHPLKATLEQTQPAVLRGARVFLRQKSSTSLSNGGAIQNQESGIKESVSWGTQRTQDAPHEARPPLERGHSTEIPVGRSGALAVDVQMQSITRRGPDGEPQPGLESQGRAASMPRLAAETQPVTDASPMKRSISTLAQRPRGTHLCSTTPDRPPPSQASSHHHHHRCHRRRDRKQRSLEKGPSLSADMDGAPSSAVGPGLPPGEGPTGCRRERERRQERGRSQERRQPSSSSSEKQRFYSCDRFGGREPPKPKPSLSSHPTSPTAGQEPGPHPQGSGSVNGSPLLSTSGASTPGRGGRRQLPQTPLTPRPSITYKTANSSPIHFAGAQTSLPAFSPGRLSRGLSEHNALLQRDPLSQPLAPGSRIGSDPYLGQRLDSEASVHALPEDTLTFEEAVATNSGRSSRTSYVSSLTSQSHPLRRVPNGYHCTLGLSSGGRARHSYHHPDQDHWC
T2 sequence (Q02410 whole entry, the tested form may be a part): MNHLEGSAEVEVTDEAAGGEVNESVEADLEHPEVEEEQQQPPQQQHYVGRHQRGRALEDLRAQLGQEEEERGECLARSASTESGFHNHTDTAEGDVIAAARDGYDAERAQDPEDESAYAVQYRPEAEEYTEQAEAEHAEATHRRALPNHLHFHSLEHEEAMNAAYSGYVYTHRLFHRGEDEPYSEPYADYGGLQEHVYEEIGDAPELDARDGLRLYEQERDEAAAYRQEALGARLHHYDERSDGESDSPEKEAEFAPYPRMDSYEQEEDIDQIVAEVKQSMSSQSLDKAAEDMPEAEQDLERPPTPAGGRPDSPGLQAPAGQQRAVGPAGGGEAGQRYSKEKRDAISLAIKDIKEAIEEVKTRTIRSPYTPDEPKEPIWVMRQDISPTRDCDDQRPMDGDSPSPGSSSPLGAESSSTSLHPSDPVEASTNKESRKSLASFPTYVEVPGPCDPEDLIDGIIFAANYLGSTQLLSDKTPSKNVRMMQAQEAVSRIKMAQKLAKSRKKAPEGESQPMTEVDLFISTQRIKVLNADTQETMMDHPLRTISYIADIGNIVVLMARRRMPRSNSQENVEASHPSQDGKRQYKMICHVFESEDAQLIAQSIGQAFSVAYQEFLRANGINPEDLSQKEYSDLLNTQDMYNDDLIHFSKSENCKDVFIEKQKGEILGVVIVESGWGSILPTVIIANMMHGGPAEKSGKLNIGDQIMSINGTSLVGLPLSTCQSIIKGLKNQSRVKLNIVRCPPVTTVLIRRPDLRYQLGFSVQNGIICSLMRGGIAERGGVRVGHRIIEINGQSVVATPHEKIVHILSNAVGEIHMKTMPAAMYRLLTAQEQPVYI

[6] = biological target: T1, Runt-related transcription factor 1/Core-binding factor subunit beta; test: Runt domain/CBFb-SMMHC interaction disruptors – biochemical, TR-FRET (AID 1438); assay type: protein assay
[7] = biological target: T2, Voltage-gated N-type calcium channel alpha-1B subunit/Amyloid beta A4 precursor protein-binding family A member 1; assay type: protein assay; remark: listed apart in the source
[8] = biological target: Induced myeloid leukemia cell differentiation protein Mcl-1 (Homo sapiens, UniProt Q07820); assay type: functional
[9] = biological target: T2, Voltage-gated N-type calcium channel alpha-1B subunit/Amyloid beta A4 precursor protein-binding family A member 1; test: disruptors of Mint-PDZ/N-type channel peptide interaction – biochemical, HTRF, set 2, SAR follow-up (AID 434980); assay type: functional
[10] = biological target: T2, Voltage-gated N-type calcium channel alpha-1B subunit/Amyloid beta A4 precursor protein-binding family A member 1; test: disruptors of Mint-PDZ/N-type channel peptide interaction – biochemical, HTRF, SAR follow-up (AID 2489); assay type: functional
[11] = biological target: 26S proteasome non-ATPase regulatory subunit 14 (Homo sapiens, UniProt O00487); test: inhibition of proteasome subunit RPN11 – biochemical, fluorescence polarization, uHTS hits, confirmation (AID 602368); assay type: functional
26S proteasome non-ATPase regulatory subunit 14, sequence (O00487 whole entry): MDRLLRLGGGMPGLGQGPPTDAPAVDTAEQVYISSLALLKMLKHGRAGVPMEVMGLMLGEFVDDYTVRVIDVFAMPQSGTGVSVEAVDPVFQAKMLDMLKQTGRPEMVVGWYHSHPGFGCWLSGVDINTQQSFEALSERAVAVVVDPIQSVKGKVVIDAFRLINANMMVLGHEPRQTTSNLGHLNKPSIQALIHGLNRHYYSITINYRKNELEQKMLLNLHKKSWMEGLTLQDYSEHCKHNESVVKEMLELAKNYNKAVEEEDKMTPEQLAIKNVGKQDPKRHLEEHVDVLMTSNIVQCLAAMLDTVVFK

[12] = biological target: 72 kDa type IV collagenase (Homo sapiens, UniProt P08253); test: Dose Response validation of uHTS RPN11 inhibitor hits using a MMP-2 Fluorescence assay.; assay type: functional
72 kDa type IV collagenase, sequence (P08253 whole entry): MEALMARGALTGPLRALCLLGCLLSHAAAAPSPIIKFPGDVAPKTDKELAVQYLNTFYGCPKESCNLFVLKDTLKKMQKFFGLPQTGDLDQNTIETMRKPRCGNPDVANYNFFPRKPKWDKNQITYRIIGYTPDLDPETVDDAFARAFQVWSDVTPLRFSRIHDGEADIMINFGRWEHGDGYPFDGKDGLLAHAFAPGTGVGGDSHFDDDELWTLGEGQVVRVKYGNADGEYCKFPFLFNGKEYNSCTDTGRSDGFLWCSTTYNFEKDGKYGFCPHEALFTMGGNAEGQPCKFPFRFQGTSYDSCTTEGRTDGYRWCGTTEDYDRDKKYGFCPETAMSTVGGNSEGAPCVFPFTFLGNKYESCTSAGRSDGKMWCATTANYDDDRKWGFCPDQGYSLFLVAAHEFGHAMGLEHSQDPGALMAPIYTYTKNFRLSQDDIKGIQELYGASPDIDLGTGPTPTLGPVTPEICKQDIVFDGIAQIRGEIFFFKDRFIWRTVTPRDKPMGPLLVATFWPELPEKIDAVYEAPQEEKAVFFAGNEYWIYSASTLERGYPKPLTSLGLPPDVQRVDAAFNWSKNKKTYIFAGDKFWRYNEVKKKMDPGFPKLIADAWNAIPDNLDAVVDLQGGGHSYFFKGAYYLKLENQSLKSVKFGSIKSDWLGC

Prothrombin = Prothrombin (Bos taurus, UniProt P00735); test: thrombin protease inhibitors – biochemical, fluorescence polarization, uHTS hits, dose response (AID 602369); assay type: functional
[13] = biological target: T3, Probable nicotinate-nucleotide adenylyltransferase (Staphylococcus aureus (strain N315), UniProt P65502); assay type: functional, Staphylococcus aureus subsp. aureus N315;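 for IC50 Mean: confirmatory dose-response retesting of NadD inhibitor hits first found in an ultra-high-throughput screen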
T3 sequence (P65502 whole entry): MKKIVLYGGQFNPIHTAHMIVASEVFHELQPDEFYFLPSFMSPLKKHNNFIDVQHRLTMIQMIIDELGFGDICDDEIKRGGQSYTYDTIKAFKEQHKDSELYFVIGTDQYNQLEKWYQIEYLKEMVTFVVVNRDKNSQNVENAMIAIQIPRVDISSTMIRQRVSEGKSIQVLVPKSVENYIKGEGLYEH

[14] = biological target: T3, Probable nicotinate-nucleotide adenylyltransferase; assay type: functional, Staphylococcus aureus subsp. aureus N315; conditions: read-out: IC50_Mean
[15] = biological target: Melanin-concentrating hormone receptor 1 (Homo sapiens, UniProt Q99705); test: Late-stage fluorescence-based counterscreen for antagonists of the G-protein coupled receptor 7 (GPR7): cell-based dose response assay to identify antagonists of the melanin-concentrating hormone receptor 1 (MCHR1). [Related pubchem assays (depositor defined):AID1861, AID1880, AID1952, AID2148, AID2251, AID2257, AID485339]; assay type: functional;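 note: stimulated with 30 nM MCH peptide agonist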
[16] = biological target: G2/mitotic-specific cyclin-B1 (Homo sapiens, UniProt P14635); test: Counterscreen assay for inhibitors of Wee1 degradation: dose response cell-based assay to identify inhibitors of cyclin B degradation. [Related pubchem assays: 1410, 1321 ]; assay type: functional
BJ [17] = test: BJ-TERT fibroblast viability loss – cell-based, RAS-independent, luminescence, dose response (AID 1933); assay type: functional; conditions: Homo sapiens
Wee1-like protein kinase = Wee1-like protein kinase (Homo sapiens, UniProt P30291); test: Dose Response Cell-based Assay for Inhibitors of Wee1 Degradation. [Related pubchem assays: 1410, 1321 ]; assay type: functional
BJ [18] = test: cells; assay type: functional, cell-based; conditions: Homo sapiens
BJ [19] = test: BJ-TERT-LT-ST fibroblast viability loss – cell-based, RAS-independent, luminescence, dose response (AID 1935); assay type: functional; conditions: Homo sapiens;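 note: BJ fibroblasts immortalized with TERT plus LT and ST oncogenes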
[20] = DRD fibroblast viability loss – cell-based, non-viral oncogenic, luminescence, dose response (AID 1934); assay type: functional; conditions: Homo sapiens
[21] = Luminescence Cell-Based Dose Retest to Confirm Inhibitors of Cancer Stem Cells. [Related pubchem assays (depositor defined):AID2717, AID2721]; assay type: functional; conditions: Homo sapiens
HeLa = test: viability loss in HeLa cells – cell-based, 24 h, cherry-picked samples, cytotoxicity control, dose response (AID 504726); assay type: functional; conditions: Homo sapiens;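 note: potency for cytotoxicity as loss of luminescence signal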

With `N#CC(OC(=O)c1ccccc1)c1cccc([N+](=O)[O-])c1` (centres undefined) the AC50 [1] was 7.45 µM (active).
With `O=C(Nc1ccc(Cl)c(Cl)c1)c1ccno1` the EC50 [2] was 11.8 µM (active) and the EC50 [3] was 11.1 µM (active).
For `CN(CCC#N)C(=O)COC(=O)c1c2c(nc3ccccc13)/C(=C/c1ccco1)CC2`, the IC50 [4] was 62.4 µM (inactive), the IC50 [5] was 6.34 µM (active) and the IC50 [6] was > 100 µM (inactive). The IC50 [7] was 3.22 µM (active), the IC50 [8] was 1.44 µM (active) and the IC50 [9] was 2.82 µM (active). The IC50 [10] was 6.19 µM (active), the IC50 [11] was 4.76 µM (active) and the IC50 [12] was > 100 µM (inactive). The IC50 (Prothrombin) was 6.71 µM (active), the IC50 [13] was 7.86 µM (active) and the IC50 [14] was 16.9 µM (active).
For `COc1ccc(Oc2c(Cl)cnn(-c3cccc(C(F)(F)F)c3)c2=O)cc1`, the IC50 [15] was 2.6 µM (active).
In the case of `Cc1ccc(/C=N/NC(=O)c2ccc3c(c2)OCCO3)s1`, the EC50 [16] is reported as > 49.7 µM (not active), the EC50 (BJ [17]) is reported as 12.4 µM (active) and the EC50 (Wee1-like protein kinase) is reported as > 49.7 µM (not active). The EC50 (BJ [18]) was 140 µM (active), the EC50 (BJ [19]) was > 150 µM (inconclusive) and the EC50 [20] was 17.9 µM (active). For the same compound, the AC50 [21] was 1.48 µM (active).
For `O=c1c2ccccc2nc(/C=C\c2ccccc2[N+](=O)[O-])n1-c1ccccc1O`, the AC50 (HeLa) was 94.2 µM (active).
